From patent US20230085307A1, “PYRIDAZINONE COMPOUND AND HERBICIDE” (NISSAN CHEMICAL CORPORATION, priority 2019, published 2023)

How the values were obtained:
green foxtail [1] = assay: Test Example 4: herbicidal effect by soil treatment (Table 19, symbol G); type: in vivo, green foxtail (Setaria viridis); details: amount of applied herbicide 320 g/ha
In short: (§1)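 Three weeks of greenhouse growth at 25° C. to 30° C. followed a uniform surface spray of water-diluted emulsion at a predetermined herbicide amount. Seeds had been sown beforehand under about 1.5 cm of sterilized diluvial soil. Grading followed criteria set out in an earlier test.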

windgrass [2] = assay: Test Example 5: herbicidal effect by foliage application, plastic box (Table 20, symbol L); type: in vivo, windgrass (Apera spica-venti); details: amount of applied herbicide 320 g/ha; foliage application after 14-day growth; evaluated three weeks after application
In short: (§2)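 Plants sown in sterilized diluvial soil and grown 14 days in a greenhouse at 25° C to 30° C, then sprayed on the foliage with the compound's emulsion diluted in water to a predetermined herbicide amount. Injury to weeds and crops scored three weeks after application on a visual rating scale.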

redroot pigweed [3] = assay: Test Example 5: herbicidal effect by foliage application, plastic box (Table 20, symbol N); type: in vivo, redroot pigweed (Amaranthus retroflexus); details: amount of applied herbicide 320 g/ha; foliage application after 14-day growth; evaluated three weeks after application
In short: as §2

barnyard grass [4] = assay: Test Example 4: herbicidal effect by soil treatment (Table 19, symbol H); type: in vivo, barnyard grass (Echinochloa crus-galli); details: amount of applied herbicide 320 g/ha
In short: as §1

barnyard grass [5] = assay: Test Example 3: herbicidal effect by foliage application, Wagner pot (Table 18, symbol H); type: in vivo, barnyard grass (Echinochloa crus-galli); details: 320 g/ha
In short: (§3)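 Plants were sown in alluvial soil held under 0.1–0.5 cm standing water and grown 14 days in a greenhouse at 25–30 °C. An emulsifiable formulation, water-diluted to the set dose, was then sprayed onto the foliage, and effects were scored three weeks later using previously defined criteria.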

Chinese sprangletop = assay: Test Example 3: herbicidal effect by foliage application, Wagner pot (Table 18, symbol D); type: in vivo, chinese sprangletop (Leptochloa chinensis); details: 320 g/ha
In short: as §3

windgrass [6] = assay: Test Example 4: herbicidal effect by soil treatment (Table 19, symbol L); type: in vivo, windgrass (Apera spica-venti); details: amount of applied herbicide 320 g/ha
In short: as §1

chickweed [7] = assay: Test Example 4: herbicidal effect by soil treatment (Table 19, symbol P); type: in vivo, common chickweed (Stellaria media); details: amount of applied herbicide 320 g/ha
In short: as §1

barnyard grass [8] = assay: Test Example 5: herbicidal effect by foliage application, plastic box (Table 20, symbol H); type: in vivo, barnyard grass (Echinochloa crus-galli); details: amount of applied herbicide 320 g/ha; foliage application after 14-day growth; evaluated three weeks after application
In short: as §2

persian speedwell [9] = assay: Test Example 4: herbicidal effect by soil treatment (Table 19, symbol R); type: in vivo, Persian speedwell (Veronica persica); details: amount of applied herbicide 320 g/ha
In short: as §1

Italian ryegrass [10] = assay: Test Example 4: herbicidal effect by soil treatment (Table 19, symbol K); type: in vivo, Italian ryegrass (Lolium multiflorum); details: amount of applied herbicide 320 g/ha
In short: as §1

wild oat [11] = assay: Test Example 5: herbicidal effect by foliage application, plastic box (Table 20, symbol I); type: in vivo, wild oat (Avena fatua); details: amount of applied herbicide 320 g/ha; foliage application after 14-day growth; evaluated three weeks after application
In short: as §2

blackgrass [12] = assay: Test Example 4: herbicidal effect by soil treatment (Table 19, symbol J); type: in vivo, blackgrass (Alopecurus myosuroides); details: amount of applied herbicide 320 g/ha
In short: as §1

lambsquarters [13] = assay: Test Example 5: herbicidal effect by foliage application, plastic box (Table 20, symbol O); type: in vivo, lambsquarters (Chenopodium album); details: amount of applied herbicide 320 g/ha; foliage application after 14-day growth; evaluated three weeks after application
In short: as §2

southern crabgrass [14] = assay: Test Example 4: herbicidal effect by soil treatment (Table 19, symbol F); type: in vivo, southern crabgrass (Digitaria ciliaris); details: amount of applied herbicide 320 g/ha
In short: as §1

Italian ryegrass [15] = assay: Test Example 5: herbicidal effect by foliage application, plastic box (Table 20, symbol K); type: in vivo, Italian ryegrass (Lolium multiflorum); details: amount of applied herbicide 320 g/ha; foliage application after 14-day growth; evaluated three weeks after application
In short: as §2

southern crabgrass [16] = assay: Test Example 5: herbicidal effect by foliage application, plastic box (Table 20, symbol F); type: in vivo, southern crabgrass (Digitaria ciliaris); details: amount of applied herbicide 320 g/ha; foliage application after 14-day growth; evaluated three weeks after application
In short: as §2

wild oat [17] = assay: Test Example 4: herbicidal effect by soil treatment (Table 19, symbol I); type: in vivo, wild oat (Avena fatua); details: amount of applied herbicide 320 g/ha
In short: as §1

lambsquarters [18] = assay: Test Example 4: herbicidal effect by soil treatment (Table 19, symbol O); type: in vivo, lambsquarters (Chenopodium album); details: amount of applied herbicide 320 g/ha
In short: as §1

blackgrass [19] = assay: Test Example 5: herbicidal effect by foliage application, plastic box (Table 20, symbol J); type: in vivo, blackgrass (Alopecurus myosuroides); details: amount of applied herbicide 320 g/ha; foliage application after 14-day growth; evaluated three weeks after application
In short: as §2

velvetleaf [20] = assay: Test Example 5: herbicidal effect by foliage application, plastic box (Table 20, symbol M); type: in vivo, velvetleaf (Abutilon theophrasti); details: amount of applied herbicide 320 g/ha; foliage application after 14-day growth; evaluated three weeks after application
In short: as §2

velvetleaf [21] = assay: Test Example 4: herbicidal effect by soil treatment (Table 19, symbol M); type: in vivo, velvetleaf (Abutilon theophrasti); details: amount of applied herbicide 320 g/ha
In short: as §1

chickweed [22] = assay: Test Example 5: herbicidal effect by foliage application, plastic box (Table 20, symbol P); type: in vivo, common chickweed (Stellaria media); details: amount of applied herbicide 320 g/ha; foliage application after 14-day growth; evaluated three weeks after application
In short: as §2

green foxtail [23] = assay: Test Example 5: herbicidal effect by foliage application, plastic box (Table 20, symbol G); type: in vivo, green foxtail (Setaria viridis); details: amount of applied herbicide 320 g/ha; foliage application after 14-day growth; evaluated three weeks after application
In short: as §2

persian speedwell [24] = assay: Test Example 5: herbicidal effect by foliage application, plastic box (Table 20, symbol R); type: in vivo, Persian speedwell (Veronica persica); details: amount of applied herbicide 320 g/ha; foliage application after 14-day growth; evaluated three weeks after application
In short: as §2

redroot pigweed [25] = assay: Test Example 4: herbicidal effect by soil treatment (Table 19, symbol N); type: in vivo, redroot pigweed (Amaranthus retroflexus); details: amount of applied herbicide 320 g/ha
In short: as §1

rice flat sedge = assay: Test Example 3: herbicidal effect by foliage application, Wagner pot (Table 18, symbol E); type: in vivo, rice flat sedge (Cyperus iria); details: 320 g/ha
In short: as §3

Cc1nn(C)c(=O)c(-c2c(-c3ccc(OC(F)(F)F)cc3)sc3c(Cl)cccc23)c1O [4-078]
Herbicidal effect by soil treatment, G: green foxtail (green foxtail [1]): 0 (Herbicidal rate of 5% or less (almost no effect)) | Herbicidal effect by foliage application, L: windgrass (windgrass [2]): 5 (Herbicidal rate of 90% or more (almost completely withered)) | Herbicidal effect by foliage application, N: redroot pigweed (redroot pigweed [3]): 5 (Herbicidal rate of 90% or more (almost completely withered)) | Herbicidal effect by soil treatment, H: barnyard grass (barnyard grass [4]): 0 (Herbicidal rate of 5% or less (almost no effect)) | herbicidal effect on barnyard grass (H) (barnyard grass [5]): 3 (Herbicidal rate of 40% or more and less than 70%) | herbicidal effect on Chinese sprangletop (D) (Chinese sprangletop): 2 (Herbicidal rate of 20% or more and less than 40%) | Herbicidal effect by soil treatment, L: windgrass (windgrass [6]): 0 (Herbicidal rate of 5% or less (almost no effect)) | Herbicidal effect by soil treatment, P: chickweed (chickweed [7]): 3 (Herbicidal rate of 40% or more and less than 70%) | Herbicidal effect by foliage application, H: barnyard grass (barnyard grass [8]): 0 (Herbicidal rate of 5% or less (almost no effect)) | Herbicidal effect by soil treatment, R: persian speedwell (persian speedwell [9]): 4 (Herbicidal rate of 70% or more and less than 90%) | Herbicidal effect by soil treatment, K: Italian ryegrass (Italian ryegrass [10]): 0 (Herbicidal rate of 5% or less (almost no effect)) | Herbicidal effect by foliage application, I: wild oat (wild oat [11]): 0 (Herbicidal rate of 5% or less (almost no effect)) | Herbicidal effect by soil treatment, J: blackgrass (blackgrass [12]): 0 (Herbicidal rate of 5% or less (almost no effect)) | Herbicidal effect by foliage application, O: lambsquarters (lambsquarters [13]): 3 (Herbicidal rate of 40% or more and less than 70%) | Herbicidal effect by soil treatment, F: southern crabgrass (southern crabgrass [14]): 0 (Herbicidal rate of 5% or less (almost no effect)) | Herbicidal effect by foliage application, K: Italian ryegrass (Italian ryegrass [15]): 0 (Herbicidal rate of 5% or less (almost no effect)) | Herbicidal effect by foliage application, F: southern crabgrass (southern crabgrass [16]): 0 (Herbicidal rate of 5% or less (almost no effect)) | Herbicidal effect by soil treatment, I: wild oat (wild oat [17]): 0 (Herbicidal rate of 5% or less (almost no effect)) | Herbicidal effect by soil treatment, O: lambsquarters (lambsquarters [18]): 0 (Herbicidal rate of 5% or less (almost no effect)) | Herbicidal effect by foliage application, J: blackgrass (blackgrass [19]): 0 (Herbicidal rate of 5% or less (almost no effect)) | Herbicidal effect by foliage application, M: velvetleaf (velvetleaf [20]): 3 (Herbicidal rate of 40% or more and less than 70%) | Herbicidal effect by soil treatment, M: velvetleaf (velvetleaf [21]): 0 (Herbicidal rate of 5% or less (almost no effect)) | Herbicidal effect by foliage application, P: chickweed (chickweed [22]): 5 (Herbicidal rate of 90% or more (almost completely withered)) | Herbicidal effect by foliage application, G: green foxtail (green foxtail [23]): 0 (Herbicidal rate of 5% or less (almost no effect)) | Herbicidal effect by foliage application, R: persian speedwell (persian speedwell [24]): 5 (Herbicidal rate of 90% or more (almost completely withered)) | Herbicidal effect by soil treatment, N: redroot pigweed (redroot pigweed [25]): 2 (Herbicidal rate of 20% or more and less than 40%) | herbicidal effect on rice flat sedge (E) (rice flat sedge): 3 (Herbicidal rate of 40% or more and less than 70%)

Cc1nn(C)c(=O)c(-c2c(-c3ccc(SC(C)C)cc3)sc3c(Cl)cccc23)c1O [4-096]
Herbicidal effect by soil treatment, G: green foxtail (green foxtail [1]): 0 (Herbicidal rate of 5% or less (almost no effect)) | Herbicidal effect by foliage application, L: windgrass (windgrass [2]): 3 (Herbicidal rate of 40% or more and less than 70%) | Herbicidal effect by foliage application, N: redroot pigweed (redroot pigweed [3]): 5 (Herbicidal rate of 90% or more (almost completely withered)) | Herbicidal effect by soil treatment, H: barnyard grass (barnyard grass [4]): 0 (Herbicidal rate of 5% or less (almost no effect)) | herbicidal effect on barnyard grass (H) (barnyard grass [5]): 5 (Herbicidal rate of 90% or more (almost completely withered)) | herbicidal effect on Chinese sprangletop (D) (Chinese sprangletop): 3 (Herbicidal rate of 40% or more and less than 70%) | Herbicidal effect by soil treatment, L: windgrass (windgrass [6]): 0 (Herbicidal rate of 5% or less (almost no effect)) | Herbicidal effect by soil treatment, P: chickweed (chickweed [7]): 3 (Herbicidal rate of 40% or more and less than 70%) | Herbicidal effect by foliage application, H: barnyard grass (barnyard grass [8]): 4 (Herbicidal rate of 70% or more and less than 90%) | Herbicidal effect by soil treatment, R: persian speedwell (persian speedwell [9]): 4 (Herbicidal rate of 70% or more and less than 90%) | Herbicidal effect by soil treatment, K: Italian ryegrass (Italian ryegrass [10]): 0 (Herbicidal rate of 5% or less (almost no effect)) | Herbicidal effect by foliage application, I: wild oat (wild oat [11]): 2 (Herbicidal rate of 20% or more and less than 40%) | Herbicidal effect by soil treatment, J: blackgrass (blackgrass [12]): 0 (Herbicidal rate of 5% or less (almost no effect)) | Herbicidal effect by foliage application, O: lambsquarters (lambsquarters [13]): 4 (Herbicidal rate of 70% or more and less than 90%) | Herbicidal effect by soil treatment, F: southern crabgrass (southern crabgrass [14]): 0 (Herbicidal rate of 5% or less (almost no effect)) | Herbicidal effect by foliage application, K: Italian ryegrass (Italian ryegrass [15]): 4 (Herbicidal rate of 70% or more and less than 90%) | Herbicidal effect by foliage application, F: southern crabgrass (southern crabgrass [16]): 0 (Herbicidal rate of 5% or less (almost no effect)) | Herbicidal effect by soil treatment, I: wild oat (wild oat [17]): 0 (Herbicidal rate of 5% or less (almost no effect)) | Herbicidal effect by soil treatment, O: lambsquarters (lambsquarters [18]): 3 (Herbicidal rate of 40% or more and less than 70%) | Herbicidal effect by foliage application, J: blackgrass (blackgrass [19]): 3 (Herbicidal rate of 40% or more and less than 70%) | Herbicidal effect by foliage application, M: velvetleaf (velvetleaf [20]): 3 (Herbicidal rate of 40% or more and less than 70%) | Herbicidal effect by soil treatment, M: velvetleaf (velvetleaf [21]): 0 (Herbicidal rate of 5% or less (almost no effect)) | Herbicidal effect by foliage application, P: chickweed (chickweed [22]): 5 (Herbicidal rate of 90% or more (almost completely withered)) | Herbicidal effect by foliage application, G: green foxtail (green foxtail [23]): 3 (Herbicidal rate of 40% or more and less than 70%) | Herbicidal effect by foliage application, R: persian speedwell (persian speedwell [24]): 5 (Herbicidal rate of 90% or more (almost completely withered)) | Herbicidal effect by soil treatment, N: redroot pigweed (redroot pigweed [25]): 5 (Herbicidal rate of 90% or more (almost completely withered)) | herbicidal effect on rice flat sedge (E) (rice flat sedge): 3 (Herbicidal rate of 40% or more and less than 70%)
